# What was measured:
# wild buckwheat = test: Test D postemergence; assay type: in vivo, Polygonum convolvulus; conditions: Fallopia convolvulus, post-emergence, Postemergence, scale 0 to 100 (0 no effect, 100 complete control), read-out: Plant response rating, Buckwheat, Wild
# Procedure, shortened: (§1)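 Visual ratings from 0 (no effect) to 100 (complete control) relative to untreated plants were taken 7–21 days after treatment. Chemicals in a surfactant-containing solvent mixture were applied preemergence to seeds in silt loam, or postemergence to plants 2–18 cm tall (1–4 leaves) grown in a peat-based potting medium.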
# cocklebur = test: Test E preemergence; assay type: in vivo, Xanthium strumarium; conditions: for Cocklebur plant response rating: scale 0 to 100 (0 no effect, 100 complete control)
# Procedure, shortened: (§2)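 Response was scored visually on a 0-100 scale (100 = complete control) versus controls after 14 to 21 days in the greenhouse. Test chemicals, formulated with surfactant in a non-phytotoxic solvent mixture, had been applied preemergence to seeds in silt loam soil or postemergence to 1- to 4-leaf plants in potting medium.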
# kochia = test: Test D postemergence; assay type: in vivo, Kochia scoparia; conditions: Bassia scoparia, post-emergence, scale 0 to 100 (0 no effect, 100 complete control), read-out: Plant response rating, Kochia
# Procedure, shortened: as §1
# windgrass = test: Test D postemergence; assay type: in vivo, Apera spica-venti; conditions: Apera spica-venti, post-emergence, scale 0 to 100 (0 no effect, 100 complete control), read-out: Plant response rating, Windgrass
# Procedure, shortened: as §1
# green foxtail = test: Test D preemergence; assay type: in vivo, Setaria viridis; conditions: Setaria viridis, pre-emergence, scale 0-100, read-out: Plant response rating, Foxtail, Green
# Procedure, shortened: as §1
# bromegrass, downy = test: Test D postemergence; assay type: in vivo, Bromus tectorum; conditions: Bromus tectorum, post-emergence, Postemergence, scale 0 to 100 (0 no effect, 100 complete control), read-out: Plant response rating, Bromegrass, Downy
# Procedure, shortened: as §1
# soybean = test: Test E postemergence; assay type: in vivo, Glycine max; conditions: Glycine max, post-emergence
# Procedure, shortened: as §2
# galium = test: Test D postemergence; assay type: in vivo, Galium aparine; conditions: Galium, post-emergence, scale 0 to 100 (0 no effect, 100 complete control), read-out: Plant response rating, Galium
# Procedure, shortened: as §1
# chickweed = test: Test D preemergence; assay type: in vivo, Stellaria media; conditions: Stellaria media, pre-emergence, scale 0-100, read-out: Plant response rating, Chickweed
# Procedure, shortened: as §1
# canarygrass = test: Test D postemergence; assay type: in vivo, Phalaris minor; conditions: Phalaris minor, post-emergence, scale 0 to 100 (0 no effect, 100 complete control), read-out: Plant response rating, Canarygrass
# Procedure, shortened: as §1
# wild mustard = test: Test D postemergence; assay type: in vivo, Sinapis arvensis; conditions: Brassica, post-emergence, scale 0 to 100 (0 no effect, 100 complete control), read-out: Plant response rating, Mustard, Wild
# Procedure, shortened: as §1
# lambsquarters = test: Test D postemergence; assay type: in vivo, Chenopodium album; conditions: Chenopodium album, post-emergence, scale 0 to 100 (0 no effect, 100 complete control), read-out: Plant response rating, Lambsquarters
# Procedure, shortened: as §1
# blackgrass = test: Test D preemergence; assay type: in vivo, Alopecurus myosuroides; conditions: Alopecurus myosuroides, pre-emergence, scale 0-100, read-out: Plant response rating, Blackgrass
# Procedure, shortened: as §1
smiles,measurement,setting,value
"N#Cc1cccc(Oc2ncc(Br)cn2)c1-n1cc(C(F)(F)F)cn1 [Compound 59, 3-[(5-bromo-2-pyrimidinyl)oxy]-2-[4-(trifluoromethyl)-1H-pyrazol-1-yl]benzonitrile]",pest or weed control at 31 g/ha,wild buckwheat; 31 g ai/ha,80%
same,pest or weed control at 62 g/ha,wild buckwheat; 62 g ai/ha,100%
same,pest or weed control at 125 g/ha,wild buckwheat; 125 g ai/ha,100%
same,pest or weed control at 250 g/ha,wild buckwheat; 250 g ai/ha,100%
same,Cocklebur plant response rating,cocklebur; 31 g ai/ha,0
same,Cocklebur plant response rating,cocklebur; 62 g ai/ha,0
same,"Plant response rating, Cocklebur","cocklebur; 250 g ai/ha, scale 0 to 100, 0 no effect, 100 complete control",0
same,pest or weed control at 31 g/ha,kochia; 31 g ai/ha,95%
same,pest or weed control at 62 g/ha,kochia; 62 g ai/ha,95%
same,pest or weed control at 125 g/ha,kochia; 125 g ai/ha,95%
same,pest or weed control at 250 g/ha,kochia; 250 g ai/ha,95%
same,pest or weed control at 31 g/ha,windgrass; 31 g ai/ha,15%
same,pest or weed control at 62 g/ha,windgrass; 62 g ai/ha,25%
same,pest or weed control at 125 g/ha,windgrass; 125 g ai/ha,35%
same,pest or weed control at 250 g/ha,windgrass; 250 g ai/ha,45%
same,pest or weed control at 31 g/ha,green foxtail; 31 g ai/ha,35%
same,pest or weed control at 62 g/ha,green foxtail; 62 g ai/ha,100%
same,pest or weed control at 125 g/ha,green foxtail; 125 g ai/ha,100%
same,pest or weed control at 250 g/ha,green foxtail; 250 g ai/ha,100%
same,pest or weed control at 31 g/ha,"bromegrass, downy; 31 g ai/ha",20%
same,pest or weed control at 62 g/ha,"bromegrass, downy; 62 g ai/ha",20%
same,pest or weed control at 125 g/ha,"bromegrass, downy; 125 g ai/ha",25%
same,pest or weed control at 250 g/ha,"bromegrass, downy; 250 g ai/ha",30%
same,"plant response (crop injury) rating, soybean, 0-100 scale at 31 g/ha","soybean; Postemergence, 31 g ai/ha, scale 0 to 100",65%
same,"plant response (crop injury) rating, soybean, 0-100 scale at 62 g/ha","soybean; Postemergence, 62 g ai/ha, scale 0 to 100",95%
same,"plant response (crop injury) rating, soybean, 0-100 scale at 125 g/ha","soybean; Postemergence, 125 g ai/ha, scale 0 to 100",95%
same,"plant response (crop injury) rating, soybean, 0-100 scale at 250 g/ha","soybean; Postemergence, 250 g ai/ha, scale 0 to 100",98%
same,"plant response (crop injury) rating, soybean, 0-100 scale at 16 g/ha","soybean; postemergence, 16 g ai/ha, scale 0 to 100, 0 no effect, 100 complete control",60%
same,pest or weed control at 31 g/ha,galium; 31 g ai/ha,75%
same,pest or weed control at 62 g/ha,galium; 62 g ai/ha,80%
same,pest or weed control at 125 g/ha,galium; 125 g ai/ha,95%
same,pest or weed control at 250 g/ha,galium; 250 g ai/ha,95%
same,pest or weed control at 31 g/ha,chickweed; 31 g ai/ha,100%
same,pest or weed control at 62 g/ha,chickweed; 62 g ai/ha,100%
same,pest or weed control at 125 g/ha,chickweed; 125 g ai/ha,100%
same,pest or weed control at 250 g/ha,chickweed; 250 g ai/ha,95%
same,pest or weed control at 31 g/ha,canarygrass; 31 g ai/ha,20%
same,pest or weed control at 62 g/ha,canarygrass; 62 g ai/ha,30%
same,pest or weed control at 125 g/ha,canarygrass; 125 g ai/ha,35%
same,pest or weed control at 250 g/ha,canarygrass; 250 g ai/ha,35%
same,pest or weed control at 31 g/ha,wild mustard; 31 g ai/ha,100%
same,pest or weed control at 62 g/ha,wild mustard; 62 g ai/ha,95%
same,pest or weed control at 125 g/ha,wild mustard; 125 g ai/ha,100%
same,pest or weed control at 250 g/ha,wild mustard; 250 g ai/ha,100%
same,pest or weed control at 31 g/ha,lambsquarters; 31 g ai/ha,90%
same,pest or weed control at 62 g/ha,lambsquarters; 62 g ai/ha,85%
same,pest or weed control at 125 g/ha,lambsquarters; 125 g ai/ha,80%
same,pest or weed control at 250 g/ha,lambsquarters; 250 g ai/ha,95%
same,pest or weed control at 31 g/ha,blackgrass; 31 g ai/ha,25%
same,pest or weed control at 62 g/ha,blackgrass; 62 g ai/ha,55%
same,pest or weed control at 125 g/ha,blackgrass; 125 g ai/ha,70%
same,pest or weed control at 250 g/ha,blackgrass; 250 g ai/ha,85%

# — patent US9695155B2, “Herbicidal substituted pyrimidinyloxy benzene compounds” (E. I. DU PONT DE NEMOURS AND COMPANY, priority 2013, dated 2017)
